Laboratory results taken from US20140357512A1, “HISTONE DEACETYLASE (HDAC) BIOMARKERS IN MULTIPLE MYELOMA” (priority 2013, published 2014).

Tested on: human myeloma cell line MM.1S
Assay: SILAC acetylated-lysine peptide profiling, HDAC inhibitor vs DMSO (light/heavy ratio)
Type: cell-based
Source text: An embodiment of the invention comprises utilizing the SILAC method in order to quantitate changes in protein expression between two or more populations of cells. The SILAC method is a technique based on mass spectrometry that detects differences in protein abundance among samples using non-radioactive isotopic labeling. The SILAC method is known in the art, and described in detail in Ong et al., “Stable Isotope Labeling by Amino Acids in Cell Culture, SILAC, as a Simple and Accurate Approach to Expression Proteomics”, Molecular & Cellular Proteomics, vol. 1, pp. 376-386 (2002), which is incorporated herein by reference in its entirety.
Briefly, the SILAC method involves growing two populations of cells in cell culture. The first population of cells is grown in growth media containing normal amino acids (“normal media”). The second population of cells is grown in media lacking a standard essential amino acid (such as lysine), but is then supplemented with a non-radioactive, isotopically labeled form of that essential amino acid (such as lysine labeled with ^13C atoms, rather than normal ^12C atoms), which is called “heavy media”. When the two populations of cells are each growing in the medium, they incorporate the amino acids into all of their proteins. The growth of cells maintained in the heavy media is no different from that in normal media. All peptides containing the heavy amino acids are heavier than their normal counterparts. The cells from each of the two populations of cells are lysed. The lysates from each of the two cell populations are then combined. The combined cell lysates are then analyzed by mass spectrometry. Pairs of chemically identical peptides of different stable isotope composition can be differentiated in a mass spectrometer due to their difference in mass. The ratio of peak intensities in the mass spectrum for such peptide pairs reflects the abundance ratio for the two proteins.
This example describes SILAC studies that were performed to compare the effects of three different HDAC inhibitors (Compound A, Compound B, and tubastatin A) to a control on a human multiple myeloma cell line. The HDAC inhibitors were also compared amongst themselves to determine differences in their effects.
A human myeloma cell line MM.1S was grown using either ^12C (light) or ^13C (heavy) lysine containing culture medium. The “heavy” cells were treated with DMSO as the control, and the “light” cells were treated with a single HDAC inhibitor at 37° C. for 6 hours. The heavy and light cells were lysed, and the lysates were mixed in 1:1 ratio and digested with the protease trypsin. The acetylated lysine containing peptides (due to the action of the HDAC inhibitor) in the digested peptide pool were captured by a non-specific anti-acetylated lysine antibody cocktail (the antibodies identify both light and heavy acetylated peptides), and subjected to mass spectrometry analysis in order to identify thousands of individual peptides.
Thousands of peptides were identified in pairs (^12C and ^13C) due to their known mass differences. The amino acid sequence and quantitative ratio (Light/Heavy) of a given peptide in two differentially treated cell lysates were then determined and annotated with their possible protein (gene) sources.
As stated above, three HDAC inhibitors (Compound A, Compound B, and Tubastatin A) were used. Thus, the SILAC method was performed three times, with a different HDAC inhibitor compared to a control each time. Accordingly, there are three pairs of quantitative data in the table below, i.e., Compound A:DMSO, Compound B:DMSO, and Tubastatin A:DMSO. A cut-off of 1.30 fold of change (increase or decrease) was then used to determine “changed” or “+” in the table, and any peptides with a fold of change less than 1.3 fold were determined to be “unchanged” or “0” in the table. Those peptides that were not identified were marked as “NA” in the table. […]

SMILES: CN1CCc2c(c3ccccc3n2Cc2ccc(C(=O)NO)cc2)C1 [Tub A]
- L/H ratio of acetylated peptide ASGLAAGK(ac)GVIVAK (SEQ ID NO: 37) (GART [156], log 2 scale, drug vs DMSO): 0.46
- light to heavy ratio (L/H ratio) of acetylated peptide, log 2 scale (GDASK(ac)EDIDTAMK (SEQ ID NO: 161), Isoform 1 of Hydroxyacyl-coenzyme A dehydrogenase mitochondrial [241], HADH): 0.47
- light to heavy ratio (L/H ratio) of acetylated peptide, log 2 scale (GDGTGGK(ac)SIYGER (SEQ ID NO: 196), Peptidyl-prolyl cis-trans isomerase B [116], PPIB): −0.54
- light to heavy ratio (L/H ratio) of acetylated peptide, log 2 scale (GFAFVTFDDHDSVDK(ac)IVIQK (SEQ ID NO: 165), Isoform A1-B of Heterogeneous nuclear ribonucleoprotein A1 [161], HNRNPA1): −0.53
- light to heavy ratio (L/H ratio) of acetylated peptide, log 2 scale (GFGGK(ac)YGVER (SEQ ID NO: 162), Hematopoietic lineage cell-specific protein [123], HCLS1): 0.77
- light to heavy ratio (L/H ratio) of acetylated peptide, log 2 scale (GHLENNPALEK(ac)LLPHIR (SEQ ID NO: 208), 60S acidic ribosomal protein P0 [77], RPLP0): −0.48
- light to heavy ratio (L/H ratio) of acetylated peptide, log 2 scale (GIVK(ac)DIIHDPGR (SEQ ID NO: 207), 60S ribosomal protein L8 [46], RPL8): −0.54
- light to heavy ratio (L/H ratio) of acetylated peptide, log 2 scale (GLFIIDDK(ac)GILR (SEQ ID NO: 197), Peroxiredoxin-1 [136], PRDX1): −0.77
- light to heavy ratio (L/H ratio) of acetylated peptide, log 2 scale (GLSSLLYGSIPK(ac)AAVR (SEQ ID NO: 220), Tricarboxylate transport protein mitochondrial [97], SLC25A1): 0.44
- L/H ratio of acetylated peptide LVK(ac)VWNLANCK (SEQ ID NO: 39) (GNB2L1 [175], log 2 scale, drug vs DMSO): −0.70
- L/H ratio of acetylated peptide IIVDELK(ac)QEVISTSSK (SEQ ID NO: 38) (GNB2L1 [271], log 2 scale, drug vs DMSO): −0.62
- light to heavy ratio (L/H ratio) of acetylated peptide, log 2 scale (GPIGSIGPK(ac)GIPGEDGYR (SEQ ID NO: 146), Isoform 1 of Collagen alpha-3(VI) chain [2052], COL6A3): −0.80
- L/H ratio of acetylated peptide (GSK(ac)K(ac)AVTK (SEQ ID NO: 490), Histone H2B type 2-E [16:17], HIST2H2BE): 0.00 log 2
- L/H ratio of acetylated peptide (ac)AHYNFK(ac)K (SEQ ID NO: 40) (GTPBP4 [7], log 2 scale, drug vs DMSO): −0.38
- light to heavy ratio (L/H ratio) of acetylated peptide, log 2 scale (GTVRPANDFNPDADAK(ac)ALR (SEQ ID NO: 130), Annexin A6 [370], ANXA6): 0.44
- L/H ratio of acetylated peptide (GYGFGLIK(ac)LDLK (SEQ ID NO: 465), Voltage-dependent anion-selective channel protein 1 [28], VDAC1): 0.00 log 2
- light to heavy ratio (L/H ratio) of acetylated peptide, log 2 scale (GYLTK(ac)EDLR (SEQ ID NO: 216), Protein S100-A10 [28], S100A10): 1.00
- light to heavy ratio (L/H ratio) of acetylated peptide (ac)ACGLVASNLNLK(ac)PGECLR (SEQ ID NO: 575) (Galectin-1 [13], gene LGALS1, inhibitor:DMSO): 0.00 log 2
- light to heavy ratio (L/H ratio) of acetylated peptide ISGASEK(ac)DIVHSGLAYTMER (SEQ ID NO: 543) (Glutamate dehydrogenase 1 mitochondrial [503], gene GLUD1, inhibitor:DMSO): 0.00 log 2
- light to heavy ratio (L/H ratio) of acetylated peptide VVK(ac)QASEGPLK (SEQ ID NO: 597) (Glyceraldehyde-3-phosphate dehydrogenase [263], gene GAPDH, inhibitor:DMSO): 0.00 log 2
- light to heavy ratio (L/H ratio), log 2 scale, acetylated peptide LLLLGAGESGK(ac)STIVK (SEQ ID NO: 769) (Guanine nucleotide-binding protein G(olf) subunit alpha [55], gene GNAL, drug:DMSO): 0.00
- L/H ratio of acetylated peptide AGGK(ac)AGK(ac)DSGK (SEQ ID NO: 15) (H2AFV [5:8], log 2 scale, drug vs DMSO): 0.47
- L/H ratio of acetylated peptide GQQQVFK(ac)GLNDK (SEQ ID NO: 41) (HADHA [406], log 2 scale, drug vs DMSO): 0.46
- L/H ratio of acetylated peptide EPVAVLK(ac)ANR (SEQ ID NO: 9) (HEXB [161], log 2 scale, drug vs DMSO): −0.58
- light to heavy ratio (L/H ratio) of acetylated peptide, log 2 scale (HIK(ac)ENDYYTPTGEFR (SEQ ID NO: 227), Dolichyl-diphosphooligosaccharide--protein glycosyltransferase subunit STT3A [613], STT3A): −0.44
- L/H ratio of acetylated peptide PDPAK(ac)SAPAPK(ac)K (SEQ ID NO: 16) (HIST1H2BO [6:12], log 2 scale, drug vs DMSO): 0.47
- light to heavy ratio (L/H ratio) of acetylated peptide, log 2 scale (HK(ac)DIDILIVR (SEQ ID NO: 178), Isocitrate dehydrogenase [NAD] subunit gamma mitochondrial [159], IDH3G): −1.00
- light to heavy ratio (L/H ratio) of acetylated peptide SLNLK(ac)HIK (SEQ ID NO: 607) (HLA-B associated transcript 1 [188], gene SNORD84, DDX39B, inhibitor:DMSO): 0.00 log 2
- L/H ratio of acetylated peptide K(ac)HPDSSVNFAEFSK (SEQ ID NO: 42) (HMGB2 [30], log 2 scale, drug vs DMSO): −0.48
- L/H ratio of acetylated peptide RGEEGHDPK(ac)EPEQLR (SEQ ID NO: 43) (HNRNPA3 [29], log 2 scale, drug vs DMSO): −0.45
- L/H ratio of acetylated peptide AFITNIPFDVK(ac)WQSLK (SEQ ID NO: 44) (HNRNPM [83], log 2 scale, drug vs DMSO): −0.48
- L/H ratio of acetylated peptide AAEVLNK(ac)HSLSGRPLK (SEQ ID NO: 3) (HNRNPM [134], log 2 scale, drug vs DMSO): −0.87
- L/H ratio of acetylated peptide VK(ac)VLFVR (SEQ ID NO: 45) (HNRNPR [341], log 2 scale, drug vs DMSO): −0.77
- L/H ratio of acetylated peptide GYFEYIEENK(ac)YSR (SEQ ID NO: 46) (HNRNPU [246], log 2 scale, drug vs DMSO): −0.60
- L/H ratio of acetylated peptide TTWVTK(ac)HAAENPGK (SEQ ID NO: 47) (HNRNPU [497], log 2 scale, drug vs DMSO): −0.56
- L/H ratio of acetylated peptide NK(ac)EIFLR (SEQ ID NO: 52) (HSP90B1 [97], log 2 scale, drug vs DMSO): −1.00
- L/H ratio of acetylated peptide […](ac)IR (SEQ ID NO: 49) (HSP90B1 [114], log 2 scale, drug vs DMSO): −0.53
- L/H ratio of acetylated peptide EELVK(ac)NLGTIAK (SEQ ID NO: 48) (HSP90B1 [161], log 2 scale, drug vs DMSO): −0.60
- L/H ratio of acetylated peptide ETLQQHK(ac)LLK (SEQ ID NO: 50) (HSP90B1 [455], log 2 scale, drug vs DMSO): −0.74
- L/H ratio of acetylated peptide IADDK(ac)YNDTFWK (SEQ ID NO: 51) (HSP90B1 [479], log 2 scale, drug vs DMSO): −0.78
- L/H ratio of acetylated peptide NQLTSNPENTVFDAK(ac)R (SEQ ID NO: 54) (HSPA5 [96], log 2 scale, drug vs DMSO): −0.74
- L/H ratio of acetylated peptide […](ac)R (SEQ ID NO: 53) (HSPA5 [213], log 2 scale, drug vs DMSO): −0.54
- L/H ratio of acetylated peptide […](ac)R (SEQ ID NO: 55) (HSPA8 [71], log 2 scale, drug vs DMSO): −0.48
- light to heavy ratio (L/H ratio) of acetylated peptide NQVALNPQNTVFDAK(ac)R (SEQ ID NO: 267) (Heat shock 70 kDa protein 1A/1B [71], HSPA1B, HSPA1A, drug:DMSO): 0.59 log 2
